From patent publication US20250197864A1, “LNCRNA TRANSCRIPTS IN MELANOMAGENESIS” (The Regents of the University of California, priority 2021, published 2025)

How the values were obtained:
[1] = test system: D04 xenograft tumors; assay: Intravenous in vivo treatment, D04 xenograft; conditions: D04 tumors in mice; 700 μg twice a week, intravenous tail vein, no transfection reagent; vs non-targeting control ASO
Method: (§1) In 4- to 6-week-old NOD.Cg-Prkdcscid Il2rgtm1Wjl/SzJ mice, D04 cells in 150 1 of PBS and 50 1 of Matrigel were subcutaneously injected on the right and left posterior dorsal flank of 4- to 6-week-old homozygous nude Foxn1nu/Foxn1nu mice (Stock.no 007850). Mice were obtained from JAX®. Tumor size was measured using a digital caliper and the formula 0.5×(length×(width^2)) was used to calculate tumor volume. Mice were treated twice a week with 700 μg of (SEQ ID NO: 16) or non-targeting control-ASO. No transfection reagent was co-applied. ASO injections were applied intravenously as tail vein injections. Mice were weighted twice a week and observed for signs of distress or disorder.

[2] = test system: sarcoma cell line SK-LMS-1; assay: Cell viability assay (ATP quantitation); type: cell-based; conditions: SK-LMS-1 sarcoma; 50 nM, 120 hrs; Lipofectamine3000 2 ul/ml; vs non-targeting control ASO
Method: (§2) EsiRNA, siRNA and ASO GapmeRs were transfected in a final concentration of 50 nM unless mentioned otherwise and the transfection reagent Lipofectamine 3000 (2 ul/ml) was added according to the manufacturer's instructions.
(§3) Dependent on cell doubling time, 0.7-2×10^^3 cells were seeded in 96 well plates. 1 day after seeding cells were incubated in media with oligonucleotide concentration and/or MEKi and transfection reagent. 3 (synergy experiments) or 5 (solely ASO) days after transfection Total luminescence was measured on the SynergyHT plate reader (BioTek) using Gen5 software.
(§4) Cell viability was compared to treatment with non-targeting control ASO-treatment. Lipofectamine3000 concentration was 2 ul/ml.

[3] = test system: hepatocellular carcinoma cell line HepG2; assay: Cell viability assay (ATP quantitation); type: cell-based; conditions: 50 nM, 120 hrs, Lipofectamine3000 2 ul/ml, vs non-targeting control ASO
Method: as §2, §3, §4

[4] = test system: D04 xenograft tumors; assay: Intratumoral in vivo treatment, D04 xenograft; conditions: D04 tumors in mice; 400 μg twice a week into the tumor mass, no transfection reagent; vs non-targeting control ASO
Method: as §1, with “Il2rgtm1Wjl/SzJ mice D04,” for “Il2rgtm1Wjl/SzJ mice, D04”, “and 501” for “and 50 1”, “right” for “right and left”, “with 400” for “with 700”, “applied into the tumor mass.” for “applied intravenously as tail vein injections.”

[5] = test system: D04 melanoma cell line; assay: Cell viability assay (ATP quantitation); type: cell-based, human; conditions: 50 nM, 5 days (120 hrs), vs non-targeting control
Method in brief: (§5)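 Transfection used Lipofectamine 3000 with 50 nM final oligonucleotide unless otherwise specified; MEKi was added for combination work. Plates were read for total luminescence at day 3 (synergy) or day 5 (ASO only).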

[6] = test system: Sk-Mel-2 melanoma cell line; assay: Cell viability assay (ATP quantitation); type: cell-based, human; conditions: 50 nM, 5 days (120 hrs), vs non-targeting control
Method in brief: as §5

[7] = test system: Hs852.T primary melanoma cell line; assay: Cell viability assay (ATP quantitation); type: cell-based, human; conditions: 50 nM, 5 days (120 hrs), vs non-targeting control
Method in brief: as §5

[8] = test system: WM3629 melanoma cell line; assay: Cell viability assay (ATP quantitation); type: cell-based, human; conditions: 50 nM, 5 days (120 hrs), vs non-targeting control
Method in brief: as §5

[9] = test system: MM415 melanoma cell line; assay: Cell viability assay (ATP quantitation); type: cell-based, human; conditions: 50 nM, 5 days (120 hrs), vs non-targeting control
Method in brief: as §5

[10] = test system: WM3211 melanoma cell line; assay: Cell viability assay (ATP quantitation); type: cell-based, human; conditions: 50 nM, 5 days (120 hrs), vs non-targeting control
Method in brief: as §5

[11] = test system: WM1366 melanoma cell line; assay: Cell viability assay (ATP quantitation); type: cell-based, human; conditions: 50 nM, 5 days (120 hrs), vs non-targeting control
Method in brief: as §5

[12] = test system: AV5 primary melanoma cell line; assay: Cell viability assay (ATP quantitation); type: cell-based, human; conditions: 50 nM, 5 days (120 hrs), vs non-targeting control
Method in brief: as §5

[13] = test system: Sk-Mel-28 melanoma cell line; assay: Cell viability assay (ATP quantitation); type: cell-based, human; conditions: 50 nM, 5 days (120 hrs), vs non-targeting control
Method in brief: as §5

[14] = test system: VMM39 melanoma cell line; assay: Cell viability assay (ATP quantitation); type: cell-based, human; conditions: 50 nM, 5 days (120 hrs), vs non-targeting control
Method in brief: as §5

Sequence: TGCGCGGCGGAAAGAA (QIAGEN GapmeR, modification pattern not given here) [SEQ ID NO: 16, ASO targeting AC004540.4 (TRASH), intronic region of Isoform 2; used in vivo]
- tumor growth [1]: significantly reduced tumor growth
- cell viability decrease [2]: significant cell viability decrease
- cell viability decrease [3]: significant cell viability decrease
- tumor growth [4]: significantly reduced tumor growth
- cell viability decrease [5]: significant cell viability decrease
- cell viability decrease [6]: significant cell viability decrease
- cell viability decrease [7]: significant cell viability decrease
- cell viability decrease [8]: significant cell viability decrease
- cell viability decrease [9]: significant cell viability decrease
- cell viability decrease [10]: significant cell viability decrease
- cell viability decrease [11]: significant cell viability decrease
- cell viability decrease [12]: significant cell viability decrease
- cell viability decrease [13]: significant cell viability decrease
- cell viability decrease [14]: significant cell viability decrease
